Literature values, collected in patent publication US11786526B2, “Pharmaceutical composition comprising rosuvastatin and ezetimibe and a preparation method thereof” (SANOFI, priority 2016, dated 2023).

Experiments:
[1] = not given; remark: listed apart in the source

| Solubility in water | Stability in an acidic environment [1] | SMILES |
| --- | --- | --- |
| almost insoluble in water | – | O=C1[C@H](CC[C@H](O)c2ccc(F)cc2)[C@@H](c2ccc(O)cc2)N1c1ccc(F)cc1 [Ezetimibe, (3R,4S)-1-(4-fluorophenyl)-3-[(3S)-3-(4-fluorophenyl)-3-hydroxypropyl]-4-(4-hydroxyphenyl)azetidin-2-one] |
| – | unstable in an acidic environment | CC(C)c1nc(N(C)S(C)(=O)=O)nc(-c2ccc(F)cc2)c1/C=C/[C@@H](O)C[C@@H](O)CC(=O)O [rosuvastatin, (3R,5S,6E)-7-[4-(4-fluorophenyl)-2-(N-methylmethanesulfonamido)-6-(propan-2-yl)pyrimidin-5-yl]-3,5-dihydroxyhept-6-enoic acid] |
